Data taken from patent US20230146455A1, “TREATMENT OF INFLAMMATORY DISEASES WITH PEPTIDES AND PHARMACEUTICAL COMPOSITIONS” (Yuyu Pharma, Inc., priority 2020, published 2023).
Values joined by “and” are separate entries in the source; they are usually repeats but may differ in a detail not shown here. Equal values may be shown once. Where a SMILES comes first, the peptide text is derived from it. [ ]: non-standard residue; d: D form. Hyp = O=C(O)[C@@H]1C[C@@H](O)CN1

System: IL-17A
Test: Example 9 Luminex, LPS hPBMCs: IL-17A
Assay type: cell-based, human
Procedure: Treatment Human PBMCs were pretreated with YY-101, YDE-011 and YDE-043 or reference compound; Xiidra® at various concentration (ranging from 1 nM to 100 uM) for 2 h before stimulation. An equal volume of 0.5% DMSO was used as a vehicle control. Then, the cells were treated with LPS at 5 ug/ml. The supernatants from treated cells were harvested at 24 h and placed in a 96 well for Luminex cytokine & chemokine profiling using a Luminex 200 multiplex assay (Luminex; R&D system, USA).
The main study arm with triplicate wells per group in a 24-well plate: • 1. Blank • 2. PBMC: 0.5% DMSO • 3. PBMC+LPS (5 ug/ml) • 4. PBMC+YY-101 100 uM • 5. PBMC+YY-101 10 uM • 6. PBMC+YY-101 1 uM • 7. PBMC+YY-101 0.1 uM • 8. PBMC+YY-101 0.01 uM • 9. PBMC+LPS (5 ug/ml)+Xiidra®100 uM • 10. PBMC+LPS (5 ug/ml)+Xiidra® 10 uM • 11. PBMC+LPS (5 ug/ml)+Xiidra® 1 uM • 12. PBMC+LPS (5 ug/ml)+Xiidra®0.1 uM • 13. PBMC+LPS (5 ug/ml)+Xiidra®0.01 uM • 14. PBMC+LPS (5 ug/ml)+Xiidra®0.001 uM • 15. PBMC+LPS (5 ug/ml)+YY-101 100 uM • 16. PBMC+LPS (5 ug/ml)+YY-101 10 uM • 17. PBMC+LPS (5 ug/ml)+YY-101 1 uM • 18. PBMC+LPS (5 ug/ml)+YY-101 0.1 uM • 19. PBMC+LPS (5 ug/ml)+YY-101 0.01 uM • 20. PBMC+LPS (5 ug/ml)+YY-101 0.001 uM • 21. PBMC+LPS (5 ug/ml)+YDE-011 100 uM • 22. PBMC+LPS (5 ug/ml)+YDE-011 10 uM • 23. PBMC+LPS (5 ug/ml)+YDE-011 1 uM • 24. PBMC+LPS (5 ug/ml)+YDE-011 0.1 uM • 25. PBMC+LPS (5 ug/ml)+YDE-011 0.01 uM • 26. PBMC+LPS (5 ug/ml)+YDE-011 0.001 uM • 27. PBMC+LPS (5 ug/ml)+YDE-043 100 uM • 28. PBMC+LPS (5 ug/ml)+YDE-043 10 uM • 29. PBMC+LPS (5 ug/ml)+YDE-043 1 uM • 30. PBMC+LPS (5 ug/ml)+YDE-043 0.1 uM • 31. PBMC+LPS (5 ug/ml)+YDE-043 0.01 uM • 32. PBMC+LPS (5 ug/ml)+YDE-043 0.001 uM
Multiplex assay was used to measure 30 cytokines and chemokines. The 1:2, 1:10 and 1:200 diluted cell supernatant and serial dilution of the standard were dispensed into a 96 well plate at 50 ul/well. Then, the pre-mixed cocktail of antibody-coated magnetic beads was dispensed at 50 ul/well and incubated at room temperature for 2 h in a horizontal orbital microplate shaker at 800±500 rpm. The beads were washed using a magnetic device to prevent loss. The biotin-antibody was dispensed in 50 ul of each well and incubated at room temperature for 1 h in a shaker at 800±500 rpm. After washing, streptavidin-PE was added at 50 ul/well and incubated at room temperature for 30 min in a shaker under the same conditions. Finally, after washing, wash buffer (100 ul/well) was added to the plate and incubated in a shaker for 2 min. The Luminex™ 200 setting were set according to the manufacturer's protocol. The data was calculated with a standard five-parameter logistic nonlinear regression analysis of the data (xPonent software 4.2, USA). The levels of cytokine/chemokine are normalized to the live cell counts (1×10^5 cells/mL) and presented as concentrations per mL (pg/mL or ng/mL).

[1] = PBMC + LPS(5 ug/ml) + test article 0.001 uM, Mean
[2] = PBMC + LPS(5 ug/ml) + test article 0.001 uM, single replicates (1st, 2nd, 3rd)
[3] = PBMC + LPS(5 ug/ml) + test article 0.01 uM, Mean
[4] = PBMC + LPS(5 ug/ml) + test article 0.01 uM, single replicates (1st, 2nd, 3rd)
[5] = PBMC + LPS(5 ug/ml) + test article 0.1 uM, Mean
[6] = PBMC + LPS(5 ug/ml) + test article 0.1 uM, single replicates (1st, 2nd, 3rd)
[7] = PBMC + LPS(5 ug/ml) + test article 1 uM, Mean
[8] = PBMC + LPS(5 ug/ml) + test article 1 uM, single replicates (1st, 2nd, 3rd)
[9] = PBMC + LPS(5 ug/ml) + test article 10 uM, Mean
[10] = PBMC + LPS(5 ug/ml) + test article 10 uM, single replicates (1st, 2nd, 3rd)
[11] = PBMC + LPS(5 ug/ml) + test article 100 uM, Mean
[12] = PBMC + LPS(5 ug/ml) + test article 100 uM, single replicates (1st, 2nd, 3rd)
[13] = PBMC without LPS + test article 0.01 uM, Mean
[14] = PBMC without LPS + test article 0.01 uM, single replicates (1st, 2nd)
[15] = PBMC without LPS + test article 0.1 uM, Mean
[16] = PBMC without LPS + test article 0.1 uM, single replicates (1st, 2nd)
[17] = PBMC without LPS + test article 1 uM, Mean
[18] = PBMC without LPS + test article 1 uM, single replicates (1st, 2nd)
[19] = PBMC without LPS + test article 10 uM, Mean
[20] = PBMC without LPS + test article 10 uM, single replicates (1st, 2nd)
[21] = PBMC without LPS + test article 100 uM, Mean
[22] = PBMC without LPS + test article 100 uM, single replicates (1st, 2nd)

CC(C)C[C@H](NC(=O)CNC(=O)[C@H](CC(=O)O)NC(=O)[C@H](CCC(N)=O)NC(=O)CNC(=O)[C@@H]1C[C@@H](O)CN1)C(=O)N[C@@H](C)C(=O)NCC(=O)N1CCC[C@H]1C(=O)N[C@@H](CCCCN)C(=O)O [YY-101] (H-[Hyp]GQDGLAGPK-OH; N-terminus and C-terminus assumed)
Concentration, IL-17A [1]: 3.8 pg/mL
MFI, Bead name: IL-17A [1]: 2.2
conc/live cell, IL-17A [1]: 0.6 pg/10^5
Concentration, IL-17A [2]: 4.3 pg/ml (2×) and 2.7 pg/ml
MFI, Bead name: IL-17A [2]: 2.5 (2×) and 1.5
conc/live cell, IL-17A [2]: 0.8 pg/10^5 and 0.6 pg/10^5 and 0.4 pg/10^5
Concentration, IL-17A [3]: 4.9 pg/mL
MFI, Bead name: IL-17A [3]: 2.8
conc/live cell, IL-17A [3]: 0.8 pg/10^5
Concentration, IL-17A [4]: 6.0 pg/ml (2×) and 2.7 pg/ml
MFI, Bead name: IL-17A [4]: 3.5 (2×) and 1.5
conc/live cell, IL-17A [4]: 0.9 pg/10^5 and 1.0 pg/10^5 and 0.4 pg/10^5
Concentration, IL-17A [5]: 4.3 pg/mL
MFI, Bead name: IL-17A [5]: 2.5
conc/live cell, IL-17A [5]: 0.7 pg/10^5
Concentration, IL-17A [6]: 6.0 pg/ml (2×) and 1.0 pg/ml
MFI, Bead name: IL-17A [6]: 3.5 (2×) and 0.5
conc/live cell, IL-17A [6]: 1.0 pg/10^5 (2×) and 0.2 pg/10^5
Concentration, IL-17A [7]: 5.4 pg/mL
MFI, Bead name: IL-17A [7]: 3.2
conc/live cell, IL-17A [7]: 0.8 pg/10^5
Concentration, IL-17A [8]: 4.3 pg/ml (2×) and 7.5 pg/ml
MFI, Bead name: IL-17A [8]: 2.5 (2×) and 4.5
conc/live cell, IL-17A [8]: 0.7 pg/10^5 and 0.6 pg/10^5 and 1.2 pg/10^5
Concentration, IL-17A [9]: 3.3 pg/mL
MFI, Bead name: IL-17A [9]: 1.8
conc/live cell, IL-17A [9]: 0.5 pg/10^5
Concentration, IL-17A [10]: 4.3 pg/ml and 2.7 pg/ml (2×)
MFI, Bead name: IL-17A [10]: 2.5 and 1.5 (2×)
conc/live cell, IL-17A [10]: 0.7 pg/10^5 and 0.4 pg/10^5 (2×)
Concentration, IL-17A [11]: 1.6 pg/mL
MFI, Bead name: IL-17A [11]: 0.8
conc/live cell, IL-17A [11]: 0.3 pg/10^5
Concentration, IL-17A [12]: 1.0 pg/ml (2×) and 2.7 pg/ml
MFI, Bead name: IL-17A [12]: 0.5 (2×) and 1.5
conc/live cell, IL-17A [12]: 0.2 pg/10^5 (2×) and 0.4 pg/10^5
Concentration, IL-17A [13]: 7.5 pg/mL
MFI, Bead name: IL-17A [13]: 4.5
conc/live cell, IL-17A [13]: 1.5 pg/10^5
Concentration, IL-17A [14]: 7.5 pg/mL
MFI, Bead name: IL-17A [14]: 4.5
conc/live cell, IL-17A [14]: 1.5 pg/10^5 and 1.6 pg/10^5
Concentration, IL-17A [15]: 8.3 pg/mL
MFI, Bead name: IL-17A [15]: 5.0
conc/live cell, IL-17A [15]: 1.5 pg/10^5
Concentration, IL-17A [16]: 4.3 pg/mL and 12.2 pg/mL
MFI, Bead name: IL-17A [16]: 2.5 and 7.5
conc/live cell, IL-17A [16]: 1.0 pg/10^5 and 2.1 pg/10^5
Concentration, IL-17A [17]: 5.2 pg/mL
MFI, Bead name: IL-17A [17]: 3.0
conc/live cell, IL-17A [17]: 0.9 pg/10^5
Concentration, IL-17A [18]: 6.0 pg/mL and 4.3 pg/mL
MFI, Bead name: IL-17A [18]: 3.5 and 2.5
conc/live cell, IL-17A [18]: 1.1 pg/10^5 and 0.8 pg/10^5
Concentration, IL-17A [19]: 18.3 pg/mL
MFI, Bead name: IL-17A [19]: 11.5
conc/live cell, IL-17A [19]: 2.9 pg/10^5
Concentration, IL-17A [20]: 22.9 pg/mL and 13.8 pg/mL
MFI, Bead name: IL-17A [20]: 14.5 and 8.5
conc/live cell, IL-17A [20]: 3.6 pg/10^5 and 2.3 pg/10^5
Concentration, IL-17A [21]: 3.5 pg/mL
MFI, Bead name: IL-17A [21]: 2.0
conc/live cell, IL-17A [21]: 0.5 pg/10^5
Concentration, IL-17A [22]: 2.7 pg/mL and 4.3 pg/mL
MFI, Bead name: IL-17A [22]: 1.5 and 2.5
conc/live cell, IL-17A [22]: 0.4 pg/10^5 and 0.6 pg/10^5
